Measured values: patent US20260305610A1, “TRIAZOLE COMPOUND, AND PREPARATION METHOD THEREFOR, HERBICIDAL COMPOSITION AND USE THEREOF” (QINGDAO KINGAGROOT CHEMICAL COMPOUND CO., LTD., priority 2023, published 2026)

System: weeds
Assay: Activity assay of compositions: soil sealing treatment (S), fresh weight inhibition and combined effect (Gowing method)
Type: in vivo
Conditions: 21 d
Procedure: The required active ingredient B was purchased from a reagent company or a technical material manufacturer or synthesized by a conventional method. The technical materials were all dissolved with acetone solvents and diluted with aqueous solution of 0.1% Tween-80 emulsifier, which should be used immediately after dilution.
• Weeds were cultivated in a controllable sunlight greenhouse at 20 to 30° C., in natural light, and with relative humidity of 57% to 72%. […] The test soil was quantitatively filled to ¾ of the pot, and then watered from the bottom of the pot to completely wet the soil to saturation. The test weed seeds were accelerated to just germinate, and then evenly and quantitatively broadcasted on the soil surface, covered with 0.5-1 cm soil according to the sizes of the seeds, and ready for use 72 hours after sowing.
Each treatment was repeated 4 times. Four pots with 20 weed seeds sowed per pot were treated each time.
The well-sowed test materials were evenly placed on a platform with an area of 0.5 m^2, and foliage spraying was carried out by the 3WP-2000-type walking spray tower at a dosage of 450 kg/ha and a spray pressure of 0.3 MPa. After all the solution was sprayed, the air valve was closed. And 30 seconds later, the door of the spray tower was opened, and the nutritional bowl was taken out. Next, the air valve was opened, and the spray tube was cleaned by spraying 50 ml of water.
A method for investigating absolute numbers was employed. Whole seedlings of survival weeds were cut off along the soil surface with a blade, and the fresh weight of the weeds was weighed using an analytical balance. For dead weeds, the fresh weight thereof was zero.
The investigation was performed 21 days after the treatment for once in total.
The theoretical fresh weight inhibition rate of a mixed combination of each treatment was calculated by the Gowing method (E0=X+Y−X*Y/100). Then compared with the measured inhibition rate (E), the type of the combined effect of the combination of the two on weeds was evaluated, which was a synergistic effect when E−E0>10%; an antagonistic effect when E−E0<−10%; an additional effect when −10%≤E−E0≤10%. An optimal ratio was determined according to factors such as the actual control effects, characteristics of herbicides, balance of the formulation, etc. In the formula, X represents the fresh weight inhibition rate of the active ingredient A in a dosage of P; Y represents the fresh weight inhibition rate of the active ingredient B in a dosage of Q. The statistical results are shown in Table 4.

[1] = Lolium temulentum, B 375 g a.i./ha
[2] = Lolium temulentum, B 750 g a.i./ha
[3] = Amaranthus retroflexus, B 15 g a.i./ha
[4] = Amaranthus retroflexus, B 30 g a.i./ha
[5] = Lolium multiflorum, B 150 g a.i./ha
[6] = Eclipta prostrata, B 7.5 g a.i./ha
[7] = Eclipta prostrata, B 15 g a.i./ha
[8] = Eclipta prostrata, B 150 g a.i./ha
[9] = Eclipta prostrata, B 300 g a.i./ha
[10] = Commelina communis, B 30 g a.i./ha
[11] = Commelina communis, B 60 g a.i./ha
[12] = Ammannia arenaria, B 15 g a.i./ha
[13] = Lolium multiflorum, B 30 g a.i./ha
[14] = Lolium multiflorum, B 60 g a.i./ha
[15] = Eclipta prostrata, B 30 g a.i./ha
[16] = Eleocharis yokoscensis, B 150 g a.i./ha
[17] = Eleocharis yokoscensis, B 300 g a.i./ha

`Cc1ccc(NC(=O)N(C)C)cc1Cl` [Chlorotoluron] was tested, and the “Control effect of B applied alone in a corresponding dose (%)” value (“Control effect of B applied alone … (%)” for short) [1] was 34.3% and the “Control effect of B applied alone … (%)” value [2] was 59.3%.

For `CS(=O)(=O)c1cc(C(F)(F)F)ccc1C(=O)c1cnoc1C1CC1` [Isoxaflutole], the “Control effect of B applied alone … (%)” value [3] was 36.7% and the “Control effect of B applied alone … (%)” value [4] was 50.3%.

`CC1(C)CON(Cc2ccc(Cl)cc2Br)C1=O` was tested, and the “Control effect of B applied alone … (%)” value (Lolium multiflorum, B 75 g a.i./ha) was 43.7% and the “Control effect of B applied alone … (%)” value [5] was 61.0%.

With `CC(C)(C)c1nn(-c2cc(OCC#N)c(Cl)cc2Cl)c(=O)o1` [Oxadiargyl] the “Control effect of B applied alone … (%)” value (Solanum nigrum, B 45 g a.i./ha) was 51.2% and the “Control effect of B applied alone … (%)” value (Solanum nigrum, B 90 g a.i./ha) was 64.7%.

In the case of `COc1nc(OC)nc(C(=O)c2cccc(F)c2N(C)S(=O)(=O)C(F)F)n1` [Triafamone], the “Control effect of B applied alone … (%)” value [6] is reported as 41.1% and the “Control effect of B applied alone … (%)” value [7] is reported as 68.2%.

With `CN(C(=O)COc1nc2ccccc2s1)c1ccccc1` [Mefenacet] the “Control effect of B applied alone … (%)” value [8] was 40.6% and the “Control effect of B applied alone … (%)” value [9] was 69.7%.

With `CCOC(=O)C1(C)CC(c2cc(-n3c(=O)cc(C(F)(F)F)n(C)c3=O)c(F)cc2Cl)=NO1` (centres unmarked) [3-[2-chloro-5-[3,6-dihydro-3-methyl-2,6-dioxo-4-(trifluoromethyl)-1(2H)-pyrimidinyl]-4-fluorophenyl]-4,5-dihydro-5-methyl-5-isoxazolecarboxylic acid ethyl ester] the “Control effect of B applied alone … (%)” value [10] was 35.0% and the “Control effect of B applied alone … (%)” value [11] was 47.3%.

In the case of `CC(C)c1ccc(NC(=O)N(C)C)cc1` [Isoproturon], the “Control effect of B applied alone … (%)” value [1] is reported as 37.1% and the “Control effect of B applied alone … (%)” value [2] is reported as 58.2%.

With `COC(=O)CCNC(=O)C(C)Sc1cc(-n2c(=O)cc(C(F)(F)F)n(C)c2=O)c(F)cc1Cl` (centres unmarked) [Tiafenacil] the “Control effect of B applied alone … (%)” value [10] was 48.2% and the “Control effect of B applied alone … (%)” value [11] was 61.4%.

With `CC(C)Oc1cc(-n2nc(C(C)(C)C)oc2=O)c(Cl)cc1Cl` [Oxadiazon] the “Control effect of B applied alone … (%)” value (Solanum nigrum, B 30 g a.i./ha) was 45.8% and the “Control effect of B applied alone … (%)” value (Solanum nigrum, B 60 g a.i./ha) was 53.5%.

`CCC[S@@+]([O-])c1c(C(F)(F)F)ccc(C(=O)Nc2nnc(C)o2)c1F` was tested, and the “Control effect of B applied alone … (%)” value [12] was 26.1% and the “Control effect of B applied alone … (%)” value (Ammannia arenaria, B 30 g a.i./ha) was 43.8%.

For `CC1=C(c2ccccc2)C(=O)N(C(C)(C)c2cc(Cl)cc(Cl)c2)CO1` [Oxaziclomefone], the “Control effect of B applied alone … (%)” value [6] was 38.9% and the “Control effect of B applied alone … (%)” value [7] was 56.8%.

For `CN1C[C@H](c2cccc(C(F)(F)F)c2)[C@@H](C(=O)Nc2ccccc2F)C1=O` [Tetflupyrolimet], the “Control effect of B applied alone … (%)” value (Monochoria vaginalis, B 7.5 g a.i./ha) was 43.9% and the “Control effect of B applied alone … (%)” value (Monochoria vaginalis, B 15 g a.i./ha) was 68.1%.

With `Cc1nn(-c2cc(NS(C)(=O)=O)c(Cl)cc2Cl)c(=O)n1C(F)F` [Sulfentrazone] the “Control effect of B applied alone … (%)” value (Solanum nigrum, B 15 g a.i./ha) was 48.5% and the “Control effect of B applied alone … (%)” value (Solanum nigrum, B 30 g a.i./ha) was 60.0%.

`CCCCOCN(C(=O)CCl)c1c(CC)cccc1CC` [Butachlor] was tested, and the “Control effect of B applied alone … (%)” value [8] was 37.2% and the “Control effect of B applied alone … (%)” value [9] was 66.8%.

For `COC(=O)[C@@H](C)O/N=C/c1cc(-n2c(=O)cc(C(F)(F)F)n(C)c2=O)c(F)cc1Cl`, the “Control effect of B applied alone … (%)” value [10] was 28.5% and the “Control effect of B applied alone … (%)” value [11] was 46.1%.

In the case of `C[C@@H](Oc1nc(F)c(Cl)c(N)c1Cl)C(=O)O`, the “Control effect of B applied alone … (%)” value [5] is reported as 38.4% and the “Control effect of B applied alone … (%)” value (Lolium multiflorum, B 300 g a.i./ha) is reported as 53.7%.

`COP(=S)(OC)SCC(=O)N(c1ccc(Cl)cc1)C(C)(C)C` [Anilofos] was tested, and the “Control effect of B applied alone … (%)” value (Eclipta prostrata, B 75 g a.i./ha) was 14.2% and the “Control effect of B applied alone … (%)” value [8] was 23.6%.

In the case of `CCC(C)Nc1c([N+](=O)[O-])cc(C(C)(C)C)cc1[N+](=O)[O-]` (centres unmarked) [Butralin], the “Control effect of B applied alone … (%)” value [8] is reported as 47.0% and the “Control effect of B applied alone … (%)” value [9] is reported as 65.3%.

`CCC(CC)Nc1c([N+](=O)[O-])cc(C)c(C)c1[N+](=O)[O-]` [Pendimethalin] was tested, and the “Control effect of B applied alone … (%)” value [8] was 45.5% and the “Control effect of B applied alone … (%)” value [9] was 63.2%.

With `COCc1cccc(C(O)c2nc(OC)cc(OC)n2)c1NS(=O)(=O)C(F)F` (centres unmarked) [Pyrimisulfan] the “Control effect of B applied alone … (%)” value [6] was 54.4% and the “Control effect of B applied alone … (%)” value [7] was 73.7%.

In the case of `Cc1ccccc1CO[C@@H]1C[C@@]2(C(C)C)CC[C@]1(C)O2` (racemic) [Cinmethylin], the “Control effect of B applied alone … (%)” value [6] is reported as 51.5% and the “Control effect of B applied alone … (%)” value [7] is reported as 72.0%.

`CCNc1nc(Cl)nc(NC(C)C)n1` [Atrazine] was tested, and the “Control effect of B applied alone … (%)” value (Chloris virgata, B 300 g a.i./ha) was 40.1% and the “Control effect of B applied alone … (%)” value (Chloris virgata, B 600 g a.i./ha) was 58.9%.

For `CS(=O)(=O)c1ccc(C(=O)C2C(=O)CCCC2=O)c(Cl)c1COCC1CCCO1` (centres unmarked) [Tefuryltrione], the “Control effect of B applied alone … (%)” value (Ammannia arenaria, B 7.5 g a.i./ha) was 32.9% and the “Control effect of B applied alone … (%)” value [12] was 55.2%.

In the case of `Cn1nc(C(F)(F)F)c(CS(=O)(=O)C2=NOC(C)(C)C2)c1OC(F)F` [Pyroxasulfone], the “Control effect of B applied alone … (%)” value [13] is reported as 40.6% and the “Control effect of B applied alone … (%)” value [14] is reported as 62.7%.

For `CC(C)=C1OC(=O)N(c2cc(OC3CCCC3)c(Cl)cc2F)C1=O` [Pentoxazone], the “Control effect of B applied alone … (%)” value [15] was 40.5% and the “Control effect of B applied alone … (%)” value (Eclipta prostrata, B 60 g a.i./ha) was 61.4%.

In the case of `CSc1nc(NC(C)C)nc(NC(C)C)n1` [Prometryn], the “Control effect of B applied alone … (%)” value [16] is reported as 42.1% and the “Control effect of B applied alone … (%)” value [17] is reported as 56.9%.

With `CC(C)C12CCC(C)(O1)C(OCc1c(F)cccc1Br)C2` (centres unmarked) the “Control effect of B applied alone … (%)” value [13] was 55.2% and the “Control effect of B applied alone … (%)” value [14] was 70.4%.

For `CC(C)N(C(=O)COc1nnc(C(F)(F)F)s1)c1ccc(F)cc1` [Flufenacet], the “Control effect of B applied alone … (%)” value [13] was 46.2% and the “Control effect of B applied alone … (%)” value [14] was 68.5%.

`CCCc1ccc2nc(Cl)c(S(=O)(=O)NC(=O)Nc3nc(OC)cc(OC)n3)n2n1` [Propyrisulfuron] was tested, and the “Control effect of B applied alone … (%)” value [6] was 42.8% and the “Control effect of B applied alone … (%)” value [7] was 63.0%.

With `CSc1nnc(C(C)(C)C)c(=O)n1N` [Metribuzin] the “Control effect of B applied alone … (%)” value [16] was 40.6% and the “Control effect of B applied alone … (%)” value [17] was 58.3%.

For `CS(=O)(=O)c1ccc(C(=O)C2=C(Sc3ccccc3)C3CCC(C3)C2=O)c(Cl)c1` (centres unmarked) [Benzobicyclon], the “Control effect of B applied alone … (%)” value (Eclipta prostrata, B 22.5 g a.i./ha) was 49.2% and the “Control effect of B applied alone … (%)” value (Eclipta prostrata, B 45 g a.i./ha) was 74.0%.

With `CCCN(CCC)c1c([N+](=O)[O-])cc(C(F)(F)F)cc1[N+](=O)[O-]` [Trifluralin] the “Control effect of B applied alone … (%)” value [8] was 45.7% and the “Control effect of B applied alone … (%)” value [9] was 67.5%.

With `COC(=O)c1csc(C)c1S(=O)(=O)NC(=O)n1nc(OC)n(C)c1=O` [Thiencarbazone-methyl] the “Control effect of B applied alone … (%)” value (Commelina communis, B 15 g a.i./ha) was 45.4% and the “Control effect of B applied alone … (%)” value [10] was 56.0%.

With `COc1cc(OC)nc(NC(=O)NS(=O)(=O)c2c(C3=NOCC(C)O3)c(Cl)nn2C)n1` (centres unmarked) [Metazosulfuron] the “Control effect of B applied alone … (%)” value [7] was 51.6% and the “Control effect of B applied alone … (%)” value [15] was 69.2%.

With `CCc1cccc(C)c1N(C(=O)CCl)[C@@H](C)COC` [S-metolachlor] the “Control effect of B applied alone … (%)” value (Amaranthus retroflexus, B 150 g a.i./ha) was 41.4% and the “Control effect of B applied alone … (%)” value (Amaranthus retroflexus, B 300 g a.i./ha) was 64.6%.

With `CCn1ncc(C(=O)c2ccc(S(C)(=O)=O)c(COCC(F)(F)F)c2Cl)c1OC(=O)c1cn(C)nc1C` [Fenpyrazone] the “Control effect of B applied alone … (%)” value [3] was 13.5% and the “Control effect of B applied alone … (%)” value [4] was 33.7%.
